Experimental data taken from patent US20050124963A1, “Method for treating aspects of alcoholism, addiction and psychosis” (priority 2003, published 2005).
Like-named read-outs stand apart in the source and are kept apart here.

What was measured:
[1] = biological target: T1, high-affinity state of dopamine D2 receptor (D2High) (Rattus norvegicus, UniProt P61169)
[2] = biological target: T1, high-affinity state of dopamine D2 receptor (D2High); settings: 7 days withdrawal, [3H]PHNO
D2 receptor = D2 receptor (Homo sapiens, UniProt P14416); settings: 1-100 nM dopamine, in vitro; cited from earlier work
[3] = test system: high-affinity states of D2; settings: rats sensitized to amphetamine; cited from earlier work
striatal D2 receptors = biological target: T2, striatal D2 receptors (Rattus norvegicus, UniProt P61169); assay: [3H]PHNO binding to striatal D2 receptors; settings: control striata
T2 construct: each rat underwent CO2 narcosis and cervical dislocation; the striata were removed; from tissue; host or cells: rat striatum (male Sprague Dawley)
Description: To induce ethanol dependence, rats (male Sprague Dawley, 200 g) received an intraperitoneal injection of 0.9% NaCl or 2 g/kg ethanol twice daily (i.e., 1.4 ml of 18% ethanol [in 0.9% NaCl] per 100 g at 9 AM and again at 3 PM daily) for 10 days (Lindholm et al., Alcohol 22: 165-171, 2000). On different days during the withdrawal period, each rat underwent CO2 narcosis and cervical dislocation; the striata were removed. The frozen (−70° C.) striata were blotted and weighed. […] The binding of [^3H]PHNO (or [+]-4-propyl-9-hydroxynaphthoxazine) (0.1 to 4.5 nM; […]; custom synthesized by New England Nuclear Corp.; non-specific binding defined by 10 μM S-(−)-sulpiride) to striatal D2 receptors was done as reported elsewhere (Seeman et al., Synapse 14: 254-262, 1993; Synapse 46: 235-239, 2002).
To confirm the elevation of D2^High sites by another method, [^3H]PHNO (or [+]-4-propyl-9-hydroxynaphthoxazine), a selective D2 agonist (Seeman et al., Synapse 14: 254-262, 1993) can be used.

[4] = test system: high-affinity state of dopamine D2 receptor (D2High); type: in vivo, rat
[5] = first eight days after stopping ethanol, [3H]raclopride

T1 sequence (P61169 whole entry): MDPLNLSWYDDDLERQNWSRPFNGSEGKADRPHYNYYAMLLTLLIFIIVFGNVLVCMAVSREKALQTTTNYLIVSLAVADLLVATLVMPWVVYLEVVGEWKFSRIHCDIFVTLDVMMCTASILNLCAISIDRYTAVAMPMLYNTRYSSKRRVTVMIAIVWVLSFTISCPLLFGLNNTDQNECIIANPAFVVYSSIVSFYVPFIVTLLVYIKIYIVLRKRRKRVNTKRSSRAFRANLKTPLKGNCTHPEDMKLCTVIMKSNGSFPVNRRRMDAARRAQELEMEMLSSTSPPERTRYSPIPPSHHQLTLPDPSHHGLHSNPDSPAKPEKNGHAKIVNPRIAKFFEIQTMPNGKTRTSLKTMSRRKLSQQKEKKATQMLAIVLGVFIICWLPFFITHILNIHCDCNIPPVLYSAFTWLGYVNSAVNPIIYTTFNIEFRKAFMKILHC
T2 sequence (P61169 whole entry): as above
D2 receptor, sequence (P14416 whole entry): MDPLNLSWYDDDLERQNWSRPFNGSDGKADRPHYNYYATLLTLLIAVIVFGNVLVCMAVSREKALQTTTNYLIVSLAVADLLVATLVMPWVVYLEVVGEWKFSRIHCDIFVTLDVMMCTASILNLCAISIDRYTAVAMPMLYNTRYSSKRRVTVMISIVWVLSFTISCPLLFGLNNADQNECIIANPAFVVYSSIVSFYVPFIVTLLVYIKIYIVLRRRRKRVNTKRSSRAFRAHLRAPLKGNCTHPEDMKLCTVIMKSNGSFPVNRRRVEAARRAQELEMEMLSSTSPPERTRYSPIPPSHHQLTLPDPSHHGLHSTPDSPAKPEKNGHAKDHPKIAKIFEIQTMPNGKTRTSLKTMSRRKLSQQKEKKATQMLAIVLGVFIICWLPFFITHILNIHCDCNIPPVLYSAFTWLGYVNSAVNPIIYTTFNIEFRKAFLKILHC

CCO [ethanol]
duration of elevation of D2High sites after ethanol withdrawal ([1]; before returning to normal): almost two weeks
D2High sites ([1]; day 15 after stopping ethanol (back to normal)): ≤ 2 pmol/g
D2High sites ([1]; days 11 and 12 after stopping ethanol): 4.8 pmol/g
increase in D2High ([1]; ethanol-withdrawn): 3.2 fold
D2 density ([1]; first eight days after stopping ethanol (2 g/kg i.p. twice daily, 10 days), [3H]raclopride, no guanilylimidodiphosphate): 19 ± 0.8 pmol/g
D2High density (increase in receptor density with guanilylimidodiphosphate) [1, 5]: 7.2 ± 0.6 pmol/g
D2 density in the presence of guanilylimidodiphosphate [1, 5]: 26.1 ± 0.8 pmol/g
increase of D2High over control value of 2 pmol/g ([1]; upon withdrawal of ethanol, [3H]raclopride): 360%
increase of D2High over control value of 2.6 pmol/g [2]: 273%
D2High ([2]; ethanol-treated striata): 7.1 pmol/g

CCN1CCC[C@H]1CNC(=O)c1c(O)c(Cl)cc(Cl)c1OC (racemic) [[^3H]raclopride]
displacement by low concentrations of dopamine (D2 receptor): not significantly displaced

CC(N)Cc1ccccc1 (stereo not drawn) [amphetamine]
elevation of high-affinity states of D2 [3]: over 350%

CCCN1CCOC2c3cc(O)ccc3CCC21 (stereo not drawn) [[^3H]PHNO, [+]-4-propyl-9-hydroxynaphthoxazine]
Kd (striatal D2 receptors): 0.71 nM

FC(F)OC(Cl)C(F)(F)F (stereo not drawn) [isoflurane]
D2High density ([4]; ethanol-treated rats five days into withdrawal, isoflurane one hour (deep stage 3 surgical anesthesia), striata 24 hours later): 1.3 pmol/g
effect on elevated D2High ([4]; one hour of deep general anesthesia, ethanol-withdrawn rats): restored D2^High to normal
